Columns and labels:
[1] = test system: KRAS G12D mutant human metastatic pancreatic cancer cell AsPc-1; assay: 3D cell proliferation inhibition assay, AsPc-1; assay type: cell-based; settings: ASPC1, 168 h, AsPc-1, 7 days, CTG
Summary of the method: (§1)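 CellTiter-Glo luminescence, read after 60 min at room temperature, measured growth of 3D cultures (5×10^2 cells/well) exposed for 7 days to compounds at final concentrations of 10000–0.026 nM in 0.2% DMSO. Percent inhibition, scaled between DMSO-treated cells and medium alone, was fitted against log concentration for IC50.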

[2] = test system: KRAS G12D mutant human pancreatic cancer cell Panc 04.03; assay: 3D cell proliferation inhibition assay, Panc 04.03; assay type: cell-based; settings: 168 h, Panc 04.03, 7 days, CTG
Summary of the method: as §1

phosphorylated ERK = assay: KRAS G12D-mediated phosphorylated ERK inhibition assay (AlphaLISA), A427; assay type: cell-based; settings: Homo sapiens, A-427; A427 cells; class symbols; read-out: pERK (A427) IC50
Description: The relative amounts of phosphorylated ERK and total ERK in the samples were separately determined according to the test methods provided in the instructions of the AlphaLISA SureFire Ultra p-ERK 1/2 (Thr202/Tyr204) kit (PerkinElmer) and the AlphaLISA SureFire Ultra TotalERK 1/2 kit (PerkinElmer).
The experimental procedures for the assay of the phosphorylated ERK and total ERK were as follows: 10 μL of each sample was added to a 384-well plate (Greiner), and 5 μL of the prepared Acceptor Beads (PerkinElmer) mixed solution (containing 50× Acceptor Beads 615, Activation Buffer, and equal volumes of Reaction Buffer 1 and Reaction Buffer 2) was added to each well; and the plate was incubated at room temperature for 2 h. Then 5 μL of 1× Donor Beads (PerkinElmer) diluted with Dilution Buffer was added to each well, and the plate was incubated at room temperature overnight. After the incubation was completed, AlphaLISA signal values for the phosphorylated ERK and total ERK were separately measured on an EnVision microplate reader (PerkinElmer) in the AlphaScreen standard mode. The following formula was adopted: phosphorylated ERK correction value=phosphorylated ERK AlphaLISA signal value/total ERK AlphaLISA signal value. The relative ratio of the phosphorylated ERK for each sample was calculated. The percentage inhibition rates of the compounds on the phosphorylated ERK at each concentration were calculated by comparing the relative value of the phosphorylated ERK with that of the DMSO control well. Then non-linear curve fittings for logarithmic concentration-inhibition rate were performed by the GraphPad Prism 8 analysis software, and the IC50 values of the compounds on the inhibition of the phosphorylated ERK were obtained (Table 2).

[3] = target: T1, Human KRAS G12D 6His-tagged (Homo sapiens, UniProt P01116, G12D); assay: KRAS-G12D/GTP binding assay (HTRF); settings: class symbols
T1 construct: purchased PerkinElmer
Summary of the method: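 HTRF kit format: 6His-tagged KRAS G12D incubated with compound (final 0.02-5000 nM, 0.5% DMSO), anti-6His Eu cryptate antibody and GTP Red reagent for 1 h at 25° C. 665/620 nm ratio versus control gave inhibition rates; IC50 by nonlinear fit.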

[4] = test system: KRAS G12D mutant human gastric cancer cell AGS; assay: 3D cell proliferation inhibition assay, AGS; assay type: cell-based; settings: 168 h, 7 days, CTG, class symbols
Summary of the method: as §1

T1 sequence (P01116 1-188 isoform P01116-2 G12D): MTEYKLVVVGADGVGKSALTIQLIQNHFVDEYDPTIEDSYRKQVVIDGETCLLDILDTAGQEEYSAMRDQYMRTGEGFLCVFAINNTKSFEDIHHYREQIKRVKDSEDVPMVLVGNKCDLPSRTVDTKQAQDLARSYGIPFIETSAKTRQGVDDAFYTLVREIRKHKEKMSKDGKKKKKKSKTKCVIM

| Compound | IC50 ([1]; class symbols) | IC50 ([2]; class symbols) | IC50 (phosphorylated ERK) | IC50 [3] | IC50 [4] | IC50 ([1]; numeric values) | IC50 ([2]; numeric values) |
| --- | --- | --- | --- | --- | --- | --- | --- |
| CCc1c(F)ccc2cc(O)cc(-c3ncc4c(N5CC6CCC(C5)N6)nc(OCC5(CN6CCN(CC7CCC8(CC7)CCN(C(=O)c7ccc(OC)c(N9CCC(=O)NC9=O)c7)CC8)CC6)CC5)nc4c3F)c12 [Example 15, 1-(5-(9-((4-((1-(((4-(3,8-diazabicyclo[3.2.1]octan-3-yl)-7-(8-ethyl-7-fluoro-3-hydroxynaphthalen-1-yl)-8-fluoropyrido[4,3-d]pyrimidin-2-yl)oxy)methyl)cyclopropyl)methyl)piperazin-1-yl)methyl)-3-azaspiro[5.5]undecane-3-carbonyl)-2-methoxyphenyl)dihydropyrimidine-2,4(1H,3H)-dione] | ≤ 50 nM | ≤ 50 nM | ≤ 50 nM | ≤ 50 nM | ≤ 50 nM |  |  |
| CCc1cccc2cc(O)cc(-c3ncc4c(N5CC6CCC(C5)N6)nc(OCC5(CN6CCN(CC7CCC8(CC7)CCN(C(=O)c7ccc(OC)c(N9CCC(=O)NC9=O)c7)CC8)CC6)CC5)nc4c3F)c12 [Example 20, 1-(5-(9-((4-((1-(((4-(3,8-diazabicyclo[3.2.1]octan-3-yl)-7-(8-ethyl-3-hydroxynaphthalen-1-yl)-8-fluoropyrido[4,3-d]pyrimidin-2-yl)oxy)methyl)cyclopropyl)methyl)piperazin-1-yl)methyl)-3-azaspiro[5.5]undecane-3-carbonyl)-2-methoxyphenyl)dihydropyrimidine-2,4(1H,3H)-dione] |  |  | ≤ 50 nM | ≤ 50 nM | ≤ 50 nM | 3.27 nM | 10.5 nM |
| C#Cc1c(F)ccc2cc(O)cc(-c3ncc4c(N5CC6CCC(C5)N6)nc(OCC5(CN6CCN(CCCCC7CCC8(CC7)CCN(C(=O)c7ccc(Cl)c(N9CCC(=O)NC9=O)c7)CC8)CC6)CC5)nc4c3F)c12 [Example 31, 1-(5-(9-(4-(4-((1-(((4-(3,8-diazabicyclo[3.2.1]octan-3-yl)-7-(8-ethynyl-7-fluoro-3-hydroxynaphthalen-1-yl)-8-fluoropyrido[4,3-d]pyrimidin-2-yl)oxy)methyl)cyclopropyl)methyl)piperazin-1-yl)butyl)-3-azaspiro[5.5]undecane-3-carbonyl)-2-chlorophenyl)dihydropyrimidine-2,4(1H,3H)-dione] |  |  | ≤ 50 nM | ≤ 50 nM | ≤ 50 nM | 5.62 nM | 22.2 nM |
| C#Cc1c(F)ccc2cc(O)cc(-c3ncc4c(N5CC6CCC(C5)N6)nc(OC[C@@H]5CCCN5CCC5CCC6(CC5)CCN(C(=O)c5ccc(Cl)c(N7CCC(=O)NC7=O)c5)CC6)nc4c3F)c12 [Example 32, 1-(5-(9-(2-((S)-2-(((4-(3,8-diazabicyclo[3.2.1]octan-3-yl)-7-(8-ethynyl-7-fluoro-3-hydroxynaphthalen-1-yl)-8-fluoropyrido[4,3-d]pyrimidin-2-yl)oxy)methyl)pyrrolidin-1-yl)ethyl)-3-azaspiro[5.5]undecane-3-carbonyl)-2-chlorophenyl)dihydropyrimidine-2,4(1H,3H)-dione] |  |  | 1000 to 10000 nM | 500 to 1000 nM | 1000 to 10000 nM |  |  |
| C#Cc1c(F)ccc2cc(O)cc(-c3ncc4c(N5CC6CCC(C5)N6)nc(OCC56CC(CN7CCN(CC8CCC9(CC8)CCN(C(=O)c8ccc(Cl)c(N%10CCC(=O)NC%10=O)c8)CC9)CC7)(C5)C6)nc4c3F)c12 [Example 33, 1-(5-(9-((4-((3-(((4-(3,8-diazabicyclo[3.2.1]octan-3-yl)-7-(8-ethynyl-7-fluoro-3-hydroxynaphthalen-1-yl)-8-fluoropyrido[4,3-d]pyrimidin-2-yl)oxy)methyl)bicyclo[1.1.1]pentan-1-yl)methyl)piperazin-1-yl)methyl)-3-azaspiro[5.5]undecane-3-carbonyl)-2-chlorophenyl)dihydropyrimidine-2,4(1H,3H)-dione] |  |  | ≤ 50 nM | 100 to 500 nM | ≤ 50 nM |  |  |
| C#Cc1c(F)ccc2cc(O)cc(-c3ncc4c(N5CC6CCC(C5)N6)nc(OCC5(CN6CCN(CC7CCC8(CC7)CCN(C(=O)c7ccc(C)c(N9CCC(=O)NC9=O)c7)CC8)CC6)CC5)nc4c3F)c12 [Example 36, 1-(5-(9-((4-((1-(((4-(3,8-diazabicyclo[3.2.1]octan-3-yl)-7-(8-ethynyl-7-fluoro-3-hydroxynaphthalen-1-yl)-8-fluoropyrido[4,3-d]pyrimidin-2-yl)oxy)methyl)cyclopropyl)methyl)piperazin-1-yl)methyl)-3-azaspiro[5.5]undecane-3-carbonyl)-2-methylphenyl)dihydropyrimidine-2,4(1H,3H)-dione] |  |  | ≤ 50 nM | ≤ 50 nM | ≤ 50 nM |  |  |

Reference: US20260166159A1, “KRAS G12D DEGRADATION AGENT, AND PREPARATION METHOD AND USE THEREFOR” (LEADINGTAC PHARMACEUTICAL (SHAOXING) CO., LTD., priority 2022, published 2026)
